# From patent US20050222114A1, “Use of new etonogestrel esters” (priority 2002, published 2005)
# Like-named read-outs stand apart in the source and are kept apart here.
# How the values were obtained:
# [1] = Pharmacokinetics of etonogestrel esters after one i.m. injection in rabbits (plasma etonogestrel by LC-MSMS); details: rabbit; for initial peak level of etonogestrel in plasma: one i.m. injection 20 mg/kg in arachis oil (40 mg/ml)
# Description: (§1) For the determination of the pharmacokinetic profile of the different etonogestrel-esters after parenteral application, i.m. application in the castrated rabbit model was chosen instead of s.c. Briefly, rabbits were injected once (day 1) with indicated etonogestrel-esters at 20 mg/kg in arachis oil (with a concentration of 40 mg/ml). At day 1, 2, 3, 4, 5, 6, 7, 8, 10, 12, 14, 21, 28, 35, 49, 63, 77, 92, 106, 120 and 133 blood was collected from the ear arteria, in EDTA-containing tubes. EDTA plasma was prepared (1500 g, 15 min) and stored at −20° C. With LC-MSMS the amount of parent compound (etonogestrel) was determined in these samples. The lower limit of this new assay is 0.5 nmol/l, from 0-250 nmol/l a linear curve was obtained with a correlation coefficient of 0,9998.
# [2] = Pharmacokinetics of androgen esters after one s.c. injection in castrated rabbits (plasma MENT or testosterone by LC-MSMS); type: in vivo; details: castrated rabbit, one s.c. injection 20 mg/kg in arachis oil (100 mg/ml)
# Description: With LC-MSMS, the amount of parent compound (testosterone or MENT) was determined in these samples.
# [3] = Solubility in solvents determined visually (appearance); type: physicochemical; details: for solubility at two times the desired concentration: all four solvents tested, desired concentration 50 mg/ml etonogestrel-undecanoate, 100 mg/ml MENT-undecanoate
# Description: To determine the solubility and viscosity of MENT undecanoate and etonogestrel undecanoate, four different solvents were used: • ethyl undecanoate • ethyl undecanoate+50% benzyl benzoate • arachis oil • arachis oil+50% benzyl benzoate
# Using these solvents, the following solutions were prepared: • 100 mg/ml etonogestrel undecanoate in the different solvents • 50 mg/ml etonogestrel undecanoate in the different solvents • 200 mg/ml MENT undecanoate in the different solvents • 100 mg/ml MENT undecanoate in the different solvents • 50 mg/ml etonogestrel undecanoate+100 mg/ml MENT undecanoate in the different solvents
# The two combined solvents were prepared by addition of 50 gram of ethyl undecanoate or arachis oil to 50 gram of benzyl benzoate. […] The arachis oil+50% benzyl benzoate solution was not filtered.
# The solubility of the compounds in the solvents was determined visually. The viscosity was determined using a Brookfield model DV-III. The density of the solutions was determined using a Mettler Toledo DA-100M density meter.
# [4] = hypogonadal men, one IM injection, FIG. 5; cited from earlier work
# [5] = rabbit, in vivo, 20 mg/kg
# Description: as §1
# [6] = one i.m. injection 20 mg/kg in arachis oil
smiles,measurement,setting,value
C#CC1(OC(=O)CCCCCCCCC)CCC2C3CCC4=CC(=O)CCC4C3C(=C)CC21CC (stereo not shown) [etonogestrel decanoate],initial peak level of etonogestrel in plasma,[1],24 nmol/L
C#C[C@]1(OC(=O)CCCCCC)CC[C@H]2[C@@H]3CCC4=CC(=O)CC[C@@H]4[C@H]3C(=C)C[C@@]21CC [etonogestrel heptanoate],initial peak level of etonogestrel in plasma,[1],120 nmol/L
C#C[C@]1(OC(=O)CCCCCCCCCCC)CC[C@H]2[C@@H]3CCC4=CC(=O)CC[C@@H]4[C@H]3C(=C)C[C@@]21CC [etonogestrel dodecanoate],initial peak level of etonogestrel in plasma,[1],9 nmol/L
CCCCCCC(=O)O[C@H]1CC[C@H]2[C@@H]3CCC4=CC(=O)CC[C@]4(C)[C@H]3CC[C@]12C [Testosterone-enanthate],pharmacokinetic profile of released MENT or testosterone (in words),[2],high peak of testosterone
C#C[C@]1(OC(=O)CCCCCCCCCC)CC[C@H]2[C@@H]3CCC4=CC(=O)CC[C@@H]4[C@H]3C(=C)C[C@@]21CC [etonogestrel undecanoate],solubility at two times the desired concentration,[3],could be dissolved at two times the desired concentration
same,duration of action: etonogestrel levels above 1 nmol/l,[1]; [6],more than 92 days
same,initial peak level of etonogestrel in plasma,[1],13 nmol/L
C#C[C@]1(OC(=O)CCCCCCCCCCCC)CC[C@H]2[C@@H]3CCC4=CC(=O)CC[C@@H]4[C@H]3C(=C)C[C@@]21CC [etonogestrel tridecanoate],pharmacokinetic profile of released etonogestrel (in words),[1]; [6],no initial levels of etonogestrel were observed
CCCCCCCCCCC(=O)O[C@H]1CC[C@H]2[C@@H]3CCC4=CC(=O)CC[C@]4(C)[C@H]3CC[C@]12C [testosterone undecanoate],pharmacokinetics of serum testosterone in humans (in words),[4],low initial release and steady-state levels of long duration
"C#C[C@]1(O)CC[C@H]2[C@@H]3CCC4=CC(=O)CC[C@@H]4[C@H]3C(=C)C[C@@]21CC [etonogestrel, (17α)-13-ethyl-17-hydroxy-11-methylene-18,19-dinorpregn-4-en-20-yn-3-one]",initial peak level of etonogestrel in plasma,[5],200 nmol/L
C#C[C@]1(OC(=O)CCCCCCCC)CC[C@H]2[C@@H]3CCC4=CC(=O)CC[C@@H]4[C@H]3C(=C)C[C@@]21CC [etonogestrel nonanoate],pharmacokinetic profile of released etonogestrel (in words),[1]; [6],lower peak levels and extended duration with serum levels of etonogestrel above 1 nmol/l
CCCCCCCCCCC(=O)O[C@H]1CC[C@H]2[C@H]3[C@H](CC[C@]12C)[C@H]1CCC(=O)C=C1C[C@H]3C [MENT-undecanoate],heating necessary to dissolve,[3]; 200 mg/ml in arachis oil,approximately 50 °C
same,solubility at two times the desired concentration,[3],could be dissolved at two times the desired concentration
